From US20020026053A1, “Novel 3-(substituted) -2- indolinones compounds and use thereof as inhibitors of protein kinase activity” (priority 1997, published 2002)

Molecular target: T1, Met receptor (EGFR/Met chimeric cells, EMR) (Homo sapiens, UniProt P08581)
T1 construct: expressed in transfected cells; the other entry of the earlier key: EGFR (P00533, Epidermal growth factor receptor)
Test: Met Autophosphorylation Assay
Format: biochemical
Summary of the method: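 Met phosphorylation was measured by capture ELISA. Lysates (90 μg/100 μl, HNTG plus 1 mM PMSF) from transiently transfected EGFR/Met chimera (EMR) cells were bound for 60 min at room temperature to wells holding rabbit anti-Met (C-28) on goat anti-rabbit coat. Phosphotyrosine was the read-out.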

T1 sequence (P08581 with tags, fused parts or gaps): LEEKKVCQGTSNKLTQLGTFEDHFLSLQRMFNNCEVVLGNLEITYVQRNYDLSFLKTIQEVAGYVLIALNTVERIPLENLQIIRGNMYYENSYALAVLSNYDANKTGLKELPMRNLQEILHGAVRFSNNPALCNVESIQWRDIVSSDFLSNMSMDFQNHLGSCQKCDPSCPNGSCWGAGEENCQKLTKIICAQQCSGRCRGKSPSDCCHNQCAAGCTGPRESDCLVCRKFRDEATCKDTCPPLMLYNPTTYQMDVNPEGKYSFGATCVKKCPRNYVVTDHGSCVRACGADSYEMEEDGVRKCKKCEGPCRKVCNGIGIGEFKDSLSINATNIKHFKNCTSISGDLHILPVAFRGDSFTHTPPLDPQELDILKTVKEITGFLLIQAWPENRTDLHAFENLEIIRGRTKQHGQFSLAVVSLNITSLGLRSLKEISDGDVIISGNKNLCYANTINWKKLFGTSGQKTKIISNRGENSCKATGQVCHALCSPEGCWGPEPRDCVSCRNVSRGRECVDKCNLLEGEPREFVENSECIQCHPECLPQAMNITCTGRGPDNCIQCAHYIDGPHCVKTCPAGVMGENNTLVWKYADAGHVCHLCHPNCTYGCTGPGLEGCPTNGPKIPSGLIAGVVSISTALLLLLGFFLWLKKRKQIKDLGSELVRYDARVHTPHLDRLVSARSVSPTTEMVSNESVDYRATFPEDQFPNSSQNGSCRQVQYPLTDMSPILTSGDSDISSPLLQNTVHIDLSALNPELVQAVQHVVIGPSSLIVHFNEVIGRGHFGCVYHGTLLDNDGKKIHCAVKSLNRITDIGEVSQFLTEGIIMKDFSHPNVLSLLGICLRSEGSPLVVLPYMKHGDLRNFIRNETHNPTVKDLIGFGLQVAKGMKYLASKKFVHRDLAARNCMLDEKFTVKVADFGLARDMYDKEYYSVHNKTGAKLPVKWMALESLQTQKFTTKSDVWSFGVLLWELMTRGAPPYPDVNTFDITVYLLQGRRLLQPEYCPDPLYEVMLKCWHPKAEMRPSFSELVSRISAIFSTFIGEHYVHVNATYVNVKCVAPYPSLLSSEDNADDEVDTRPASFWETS

Compound | Met Kinase % Inhibition (P.130) [%]
Cc1c(Br)cc(Br)c2c1C(=Cc1ccc(O)cc1)C(=O)N2 [10719/H07] | 22.9
Cc1c(Br)cc(Br)c2c1C(=Cc1ccc(N(C)C)cc1)C(=O)N2 [10719/H08] | 20.0
Cc1c(Br)cc(Br)c2c1C(=Cc1ccc(F)cc1Cl)C(=O)N2 [10719/H09] | 5.8
Cc1c(Br)cc(Br)c2c1C(=Cc1cccc([N+](=O)[O-])c1)C(=O)N2 [10719/H10] | −5.7
Cc1c(Br)cc(Br)c2c1C(=Cc1ccc(F)cc1C(F)(F)F)C(=O)N2 [10719/H11] | 50.5
Cc1c(Br)cc(Br)c2c1C(=Cc1c(F)cc(F)cc1F)C(=O)N2 [10720/H02] | 64.1
COc1cc(O)ccc1C=C1C(=O)Nc2c(Br)cc(Br)c(C)c21 [10720/H03] | 40.0
N#Cc1ccccc1C=C1C(=O)Nc2ccc(CCCl)cc21 [10735/G07] | 37.1
O=C1Nc2ccc(CCCl)cc2C1=Cc1c(F)cccc1F [10735/G08] | 29.9
O=C1Nc2ccc(CCCl)cc2C1=Cc1cccc2ccccc12 [10735/G09] | 16.8
O=C1Nc2ccc(CCCl)cc2C1=Cc1ccc(Cl)cc1Cl [10735/G10] | 37.8
O=C1Nc2ccc(CCCl)cc2C1=Cc1ccc(-c2ccccc2)cc1 [10735/G11] | 23.0
Cc1ccccc1C=C1C(=O)Nc2c(Br)cc(Br)c(C)c21 [10735/H02] | 29.2
Cc1c(Br)cc(Br)c2c1C(=Cc1ccc(F)c(F)c1)C(=O)N2 [10735/H03] | 40.8
Cc1c(Br)cc(Br)c2c1C(=Cc1cc(F)cc(F)c1)C(=O)N2 [10735/H04] | 42.9
Cc1c(Br)cc(Br)c2c1C(=Cc1cccc(C(F)(F)F)c1)C(=O)N2 [10735/H05] | 49.8
Cc1c(Br)cc(Br)c2c1C(=Cc1cc(C(F)(F)F)cc(C(F)(F)F)c1)C(=O)N2 [10735/H06] | 57.2
Cc1c(Br)cc(Br)c2c1C(=Cc1ccccc1C#N)C(=O)N2 [10735/H07] | 48.5
Cc1c(Br)cc(Br)c2c1C(=Cc1c(F)cccc1F)C(=O)N2 [10735/H08] | 59.2
Cc1c(Br)cc(Br)c2c1C(=Cc1cccc3ccccc13)C(=O)N2 [10735/H09] | 22.4
Cc1c(Br)cc(Br)c2c1C(=Cc1ccc(Cl)cc1Cl)C(=O)N2 [10735/H10] | 29.9
Cc1c(Br)cc(Br)c2c1C(=Cc1ccc(-c3ccccc3)cc1)C(=O)N2 [10735/H11] | 22.8
O=C1Nc2c(Br)cc(Br)cc2C1=Cc1ccc(Cl)cc1 [10736/A02] | 72.5
O=C1Nc2c(Br)cc(Br)cc2C1=Cc1ccccc1C(F)(F)F [10736/A03] | 42.6
Cc1cccc(C=C2C(=O)Nc3c(Br)cc(Br)cc32)c1 [10736/A04] | 75.2
Cc1ccc(C=C2C(=O)Nc3c(Br)cc(Br)cc32)cc1 [10736/A05] | 73.6
O=C1Nc2c(Br)cc(Br)cc2C1=Cc1cccc(Cl)c1 [10736/A06] | 69.7

Compound | Met Kinase % Inhibition (P.130) [%]
O=C1Nc2c(Br)cc(Br)cc2C1=Cc1cccc(F)c1 [10736/A07] | 55.2
O=C1Nc2c(Br)cc(Br)cc2C1=Cc1ccccc1F [10736/A08] | 58.7
CCc1ccc(C=C2C(=O)Nc3c(Br)cc(Br)cc32)cc1 [10736/A09] | 69.7
COc1cccc(C=C2C(=O)Nc3c(Br)cc(Br)cc32)c1 [10736/A10] | 65.0
O=C1Nc2c(Br)cc(Br)cc2C1=Cc1ccccc1Cl [10736/A11] | 46.1
O=C1Nc2ccc(I)cc2C1=Cc1ccc(Cl)cc1 [10736/B02] | 73.6
O=C1Nc2ccc(I)cc2C1=Cc1ccccc1C(F)(F)F [10736/B03] | 65.5
Cc1cccc(C=C2C(=O)Nc3ccc(I)cc32)c1 [10736/B04] | 65.5
Cc1ccc(C=C2C(=O)Nc3ccc(I)cc32)cc1 [10736/B05] | 63.9
O=C1Nc2ccc(I)cc2C1=Cc1cccc(Cl)c1 [10736/B06] | 60.6
O=C1Nc2ccc(I)cc2C1=Cc1cccc(F)c1 [10736/B07] | 87.2
O=C1Nc2ccc(I)cc2C1=Cc1ccccc1F [10736/B08] | 59.3
CCc1ccc(C=C2C(=O)Nc3ccc(I)cc32)cc1 [10736/B09] | 55.2
COc1cccc(C=C2C(=O)Nc3ccc(I)cc32)c1 [10736/B10] | 52.5
O=C1Nc2ccc(I)cc2C1=Cc1ccccc1Cl [10736/B11] | 47.0
Cc1c(Br)ccc2c1C(=Cc1ccc(Cl)cc1)C(=O)N2 [10736/C02] | 50.1
Cc1c(Br)ccc2c1C(=Cc1ccccc1C(F)(F)F)C(=O)N2 [10736/C03] | 9.9
Cc1cccc(C=C2C(=O)Nc3ccc(Br)c(C)c32)c1 [10736/C04] | 49.0
Cc1ccc(C=C2C(=O)Nc3ccc(Br)c(C)c32)cc1 [10736/C05] | 44.6
Cc1c(Br)ccc2c1C(=Cc1cccc(Cl)c1)C(=O)N2 [10736/C06] | 45.2
Cc1c(Br)ccc2c1C(=Cc1cccc(F)c1)C(=O)N2 [10736/C07] | 55.6
Cc1c(Br)ccc2c1C(=Cc1ccccc1F)C(=O)N2 [10736/C08] | 49.2
CCc1ccc(C=C2C(=O)Nc3ccc(Br)c(C)c32)cc1 [10736/C09] | 27.9
COc1cccc(C=C2C(=O)Nc3ccc(Br)c(C)c32)c1 [10736/C10] | 18.7
Cc1c(Br)ccc2c1C(=Cc1ccccc1Cl)C(=O)N2 [10736/C11] | 11.0
CNS(=O)(=O)c1ccc2c(c1)C(=Cc1ccc(Cl)cc1)C(=O)N2 [10736/D02] | 44.4
CNS(=O)(=O)c1ccc2c(c1)C(=Cc1ccccc1C(F)(F)F)C(=O)N2 [10736/D03] | 14.7

Compound | Met Kinase % Inhibition (P.130) [%]
CNS(=O)(=O)c1ccc2c(c1)C(=Cc1cccc(C)c1)C(=O)N2 [10736/D04] | 8.1
CNS(=O)(=O)c1ccc2c(c1)C(=Cc1ccc(C)cc1)C(=O)N2 [10736/D05] | 3.9
CNS(=O)(=O)c1ccc2c(c1)C(=Cc1cccc(Cl)c1)C(=O)N2 [10736/D06] | 14.7
CNS(=O)(=O)c1ccc2c(c1)C(=Cc1cccc(F)c1)C(=O)N2 [10736/D07] | 15.4
CNS(=O)(=O)c1ccc2c(c1)C(=Cc1ccccc1F)C(=O)N2 [10736/D08] | 13.0
CCc1ccc(C=C2C(=O)Nc3ccc(S(=O)(=O)NC)cc32)cc1 [10736/D09] | 14.1
CNS(=O)(=O)c1ccc2c(c1)C(=Cc1cccc(OC)c1)C(=O)N2 [10736/D10] | 16.9
CNS(=O)(=O)c1ccc2c(c1)C(=Cc1ccccc1Cl)C(=O)N2 [10736/D11] | 22.6
O=C1Nc2ccc(S(=O)(=O)Nc3ccc(C(F)(F)F)cc3)cc2C1=Cc1ccc(Cl)cc1 [10736/E02] | 81.5
O=C1Nc2ccc(S(=O)(=O)Nc3ccc(C(F)(F)F)cc3)cc2C1=Cc1ccccc1C(F)(F)F [10736/E03] | 33.0
Cc1cccc(C=C2C(=O)Nc3ccc(S(=O)(=O)Nc4ccc(C(F)(F)F)cc4)cc32)c1 [10736/E04] | 61.8
Cc1ccc(C=C2C(=O)Nc3ccc(S(=O)(=O)Nc4ccc(C(F)(F)F)cc4)cc32)cc1 [10736/E05] | 57.6
O=C1Nc2ccc(S(=O)(=O)Nc3ccc(C(F)(F)F)cc3)cc2C1=Cc1cccc(Cl)c1 [10736/E06] | 66.6
O=C1Nc2ccc(S(=O)(=O)Nc3ccc(C(F)(F)F)cc3)cc2C1=Cc1cccc(F)c1 [10736/E07] | 45.9
O=C1Nc2ccc(S(=O)(=O)Nc3ccc(C(F)(F)F)cc3)cc2C1=Cc1ccccc1F [10736/E08] | 52.3
CCc1ccc(C=C2C(=O)Nc3ccc(S(=O)(=O)Nc4ccc(C(F)(F)F)cc4)cc32)cc1 [10736/E09] | 53.8
COc1cccc(C=C2C(=O)Nc3ccc(S(=O)(=O)Nc4ccc(C(F)(F)F)cc4)cc32)c1 [10736/E10] | 37.8
O=C1Nc2ccc(S(=O)(=O)Nc3ccc(C(F)(F)F)cc3)cc2C1=Cc1ccccc1Cl [10736/E11] | 64.4
O=C1Nc2ccc(S(=O)(=O)N3CCOCC3)cc2C1=Cc1ccc(Cl)cc1 [10736/F02] | 69.4
O=C1Nc2ccc(S(=O)(=O)N3CCOCC3)cc2C1=Cc1ccccc1C(F)(F)F [10736/F03] | 23.9
Cc1cccc(C=C2C(=O)Nc3ccc(S(=O)(=O)N4CCOCC4)cc32)c1 [10736/F04] | 45.2
Cc1ccc(C=C2C(=O)Nc3ccc(S(=O)(=O)N4CCOCC4)cc32)cc1 [10736/F05] | 19.8
O=C1Nc2ccc(S(=O)(=O)N3CCOCC3)cc2C1=Cc1cccc(Cl)c1 [10736/F06] | 49.0
O=C1Nc2ccc(S(=O)(=O)N3CCOCC3)cc2C1=Cc1cccc(F)c1 [10736/F07] | 10.7
O=C1Nc2ccc(S(=O)(=O)N3CCOCC3)cc2C1=Cc1ccccc1F [10736/F08] | −0.2
CCc1ccc(C=C2C(=O)Nc3ccc(S(=O)(=O)N4CCOCC4)cc32)cc1 [10736/F09] | 40.2
